From patent US10004701B2, “Methods and compositions for treating infection” (UNIVERSITY OF ROCHESTER, priority 2012, dated 2018)
Counter-ions that a name gives are not always drawn. Like-named read-outs stand apart in the source and are kept apart here.

Key:
Test in all cases: AK assay 384-well format, Prestwick library screening
[1] = tested on: E. faecium; format: cell-based, Enterococcus faecium; conditions: 50 μM final drug concentration; for fold induction at 50 µM: Enterococcus faecium, 3 h
[2] = tested on: S. aureus strain USA300-0114; format: cell-based, Staphylococcus aureus; conditions: 50 μM final drug concentration; for fold induction at 50 µM: Staphylococcus aureus, USA300, 3 h
[3] = tested on: K. pneumoniae; format: cell-based, Klebsiella pneumoniae; conditions: 50 μM final drug concentration; for fold induction at 50 µM: Klebsiella pneumoniae, 3 h
[4] = tested on: A. baumannii strain 98-37-09; format: cell-based, Acinetobacter baumannii; conditions: 50 μM final drug concentration; for fold induction at 50 µM: Acinetobacter baumannii, 983709, 3 h
[5] = tested on: P. aeruginosa; format: cell-based, Pseudomonas aeruginosa; conditions: 50 μM final drug concentration; for fold induction at 50 µM: Pseudomonas aeruginosa, 3 h
[6] = tested on: E. cloacae; format: cell-based, Enterobacter cloacae; conditions: 50 μM final drug concentration; for fold induction at 50 µM: Enterobacter cloacae, 3 h
[7] = tested on: E. coli; format: cell-based, Escherichia coli; conditions: for fold induction at 50 µM: Escherichia coli, 3 h
[8] = planktonic E. faecium, 384-well, cutoff for positive-scoring molecules 3-fold increase, read-out: AK-based Prestwick Library Screening Results: E. faecium (increase in extracellular AK activity)
[9] = planktonic S. aureus, 384-well, cutoff for positive-scoring molecules 3-fold increase, read-out: AK-based Prestwick Library Screening Results: S. aureus (increase in extracellular AK activity)
[10] = planktonic K. pneumoniae, 384-well, cutoff for positive-scoring molecules 3-fold increase, read-out: AK-based Prestwick Library Screening Results: K. pneumoniae (increase in extracellular AK activity)
[11] = planktonic A. baumannii, 384-well, cutoff for positive-scoring molecules 3-fold increase, read-out: AK-based Prestwick Library Screening Results: A. baumannii (increase in extracellular AK activity)
[12] = planktonic P. aeruginosa, 384-well, cutoff for positive-scoring molecules 3-fold increase, read-out: AK-based Prestwick Library Screening Results: P. aeruginosa (increase in extracellular AK activity)
[13] = planktonic E. cloacae, 384-well, cutoff for positive-scoring molecules 3-fold increase, read-out: AK-based Prestwick Library Screening Results: E. cloacae (increase in extracellular AK activity)
[14] = planktonic E. coli, 50 μM final drug concentration, 384-well, cutoff for positive-scoring molecules 3-fold increase, read-out: AK-based Prestwick Library Screening Results: E. coli (increase in extracellular AK activity)
[15] = cutoff for positive-scoring molecules 3-fold increase, read-out: AK-based Prestwick Library Screening Results, E. faecium (fold increase in extracellular AK activity)
[16] = cutoff for positive-scoring molecules 3-fold increase, read-out: AK-based Prestwick Library Screening Results, S. aureus (fold increase in extracellular AK activity)
[17] = cutoff for positive-scoring molecules 3-fold increase, read-out: AK-based Prestwick Library Screening Results, K. pneumoniae (fold increase in extracellular AK activity)
[18] = cutoff for positive-scoring molecules 3-fold increase, read-out: AK-based Prestwick Library Screening Results, A. baumannii (fold increase in extracellular AK activity)
[19] = cutoff for positive-scoring molecules 3-fold increase, read-out: AK-based Prestwick Library Screening Results, P. aeruginosa (fold increase in extracellular AK activity)
[20] = cutoff for positive-scoring molecules 3-fold increase, read-out: AK-based Prestwick Library Screening Results, E. cloacae (fold increase in extracellular AK activity)
[21] = planktonic E. coli, 50 μM final drug concentration, […]

CCN(CC)CC(=O)Nc1c(C)cccc1C [Lidocaine hydrochloride]
fold induction at 50 µM [1, 8]: 1.2
fold induction at 50 µM [2, 9]: 1.1
fold induction at 50 µM [3, 10]: 1.1
fold induction at 50 µM [4, 11]: 1.1
fold induction at 50 µM [5, 12]: 1.1
fold induction at 50 µM [6, 13]: 1.3
fold induction at 50 µM [7, 14]: 1.3

Cc1cccc(C)c1NC(=O)CN1CCN(CCCC(c2ccc(F)cc2)c2ccc(F)cc2)CC1 [Lidoflazine]
fold induction at 50 µM ([1]; planktonic, cutoff for positive 3-fold increase, read-out: AK-based Prestwick Library Screening Results, E. faecium (fold increase in extracellular AK activity)): 1
fold induction at 50 µM ([2]; planktonic, cutoff for positive 3-fold increase, read-out: AK-based Prestwick Library Screening Results, S. aureus (fold increase in extracellular AK activity)): 1.4
fold induction at 50 µM ([3]; planktonic, cutoff for positive 3-fold increase, read-out: AK-based Prestwick Library Screening Results, K. pneumoniae (fold increase in extracellular AK activity)): 1.1
fold induction at 50 µM ([4]; planktonic, cutoff for positive 3-fold increase, read-out: AK-based Prestwick Library Screening Results, A. baumannii (fold increase in extracellular AK activity)): 2.9
fold induction at 50 µM ([5]; planktonic, cutoff for positive 3-fold increase, read-out: AK-based Prestwick Library Screening Results, P. aeruginosa (fold increase in extracellular AK activity)): 1.3
fold induction at 50 µM ([6]; planktonic, cutoff for positive 3-fold increase, read-out: AK-based Prestwick Library Screening Results, E. cloacae (fold increase in extracellular AK activity)): 1.4
fold induction at 50 µM ([7]; 50 μM final drug concentration, planktonic, cutoff for positive 3-fold increase, read-out: AK-based Prestwick Library Screening Results, E. coli (fold increase in extracellular AK activity)): 1.4

CCC[C@@H]1C[C@@H](C(=O)N[C@@H]([C@H]2O[C@H](SC)[C@H](O)[C@@H](O)[C@H]2O)[C@@H](C)O)N(C)C1 [Lincomycin hydrochloride]
fold induction at 50 µM [1, 8]: 1.3
fold induction at 50 µM [2, 9]: 7.9
fold induction at 50 µM [3, 10]: 0.9
fold induction at 50 µM [4, 11]: 1.2
fold induction at 50 µM [5, 12]: 1.2
fold induction at 50 µM [6, 13]: 1.3
fold induction at 50 µM [7, 14]: 0.9

N[C@@H](Cc1cc(I)c(Oc2ccc(O)c(I)c2)c(I)c1)C(=O)O [Liothyronine]
fold induction at 50 µM [1, 15]: 1.1
fold induction at 50 µM [2, 16]: 1
fold induction at 50 µM [3, 17]: 0.9
fold induction at 50 µM [4, 18]: 1.1
fold induction at 50 µM [5, 19]: 1.1
fold induction at 50 µM [6, 20]: 1.6
fold induction at 50 µM ([7]; read-out: AK-based Prestwick Library Screening Results, E. coli (fold increase in extracellular AK activity)): 1.2

NCCCC[C@H](N[C@@H](CCc1ccccc1)C(=O)O)C(=O)N1CCC[C@H]1C(=O)O [Lisinopril]
fold induction at 50 µM [1, 8]: 1
fold induction at 50 µM [2, 9]: 4.3
fold induction at 50 µM [3, 10]: 1
fold induction at 50 µM [4, 11]: 1.3
fold induction at 50 µM [5, 12]: 1.2
fold induction at 50 µM [6, 13]: 1.5
fold induction at 50 µM [7, 14]: 1.2

C[C@H](CCC(=O)O)[C@H]1CC[C@H]2[C@@H]3CC[C@@H]4C[C@H](O)CC[C@]4(C)[C@H]3CC[C@]12C [Lithocholic acid]
fold induction at 50 µM [1, 15]: 1.2
fold induction at 50 µM [2, 16]: 1.1
fold induction at 50 µM [3, 17]: 0.8
fold induction at 50 µM [4, 18]: 1
fold induction at 50 µM [5, 19]: 1
fold induction at 50 µM [6, 20]: 1.7
fold induction at 50 µM ([7]; 50 μM final drug concentration, cutoff for positive-scoring molecules 3-fold increase, read-out: AK-based Prestwick Library Screening Results, E. coli (fold increase in extracellular AK activity)): 0.8

CN1[C@@H](C[C@@H](O)c2ccccc2)CCC[C@H]1C[C@H](O)c1ccccc1.Cl [Lobelanidine hydrochloride]
AK-based Prestwick Library Screening Results, E. faecium (increase in extracellular AK activity) ([1]; planktonic E. faecium, cutoff for positive-scoring molecules 3-fold increase): 0.9
AK-based Prestwick Library Screening Results, S. aureus (increase in extracellular AK activity) ([2]; planktonic S. aureus, cutoff for positive-scoring molecules 3-fold increase): 0.6
AK-based Prestwick Library Screening Results, K. pneumoniae (increase in extracellular AK activity) ([3]; planktonic K. pneumoniae, cutoff for positive-scoring molecules 3-fold increase): 0.8
AK-based Prestwick Library Screening Results, A. baumannii (increase in extracellular AK activity) ([4]; planktonic A. baumannii, cutoff for positive-scoring molecules 3-fold increase): 1.0
AK-based Prestwick Library Screening Results, P. aeruginosa (increase in extracellular AK activity) ([5]; planktonic P. aeruginosa, cutoff for positive-scoring molecules 3-fold increase): 1.0
AK-based Prestwick Library Screening Results, E. cloacae (increase in extracellular AK activity) ([6]; planktonic E. cloacae, cutoff for positive-scoring molecules 3-fold increase): 1.0
AK-based Prestwick Library Screening Results, E. coli (increase in extracellular AK activity) [7, 21]: 1.0

CN1[C@@H](CC(=O)c2ccccc2)CCC[C@H]1C[C@H](O)c1ccccc1.Cl [Lobeline alpha (−) hydrochoride]
AK-based Prestwick Library Screening Results, E. faecium (increase in extracellular AK activity) ([1]; planktonic E. faecium, […]): 0.9
AK-based Prestwick Library Screening Results, S. aureus (increase in extracellular AK activity) ([2]; planktonic S. aureus, […]): 0.8
AK-based Prestwick Library Screening Results, K. pneumoniae (increase in extracellular AK activity) ([3]; planktonic K. pneumoniae, […]): 0.7
AK-based Prestwick Library Screening Results, A. baumannii (increase in extracellular AK activity) ([4]; planktonic A. baumannii, […]): 0.8
AK-based Prestwick Library Screening Results, P. aeruginosa (increase in extracellular AK activity) ([5]; planktonic P. aeruginosa, […]): 0.9
AK-based Prestwick Library Screening Results, E. cloacae (increase in extracellular AK activity) ([6]; planktonic E. cloacae, […]): 1.0
AK-based Prestwick Library Screening Results, E. coli (increase in extracellular AK activity) [7, 21]: 1.0

CCn1cc(C(=O)O)c(=O)c2cc(F)c(N3CCNC(C)C3)c(F)c21 (stereo not shown) [Lomefloxacin hydrochloride]
fold induction at 50 µM [1, 8]: 1.5
fold induction at 50 µM [2, 9]: 3.4
fold induction at 50 µM [3, 10]: 1
fold induction at 50 µM [4, 11]: 3.8
fold induction at 50 µM [5, 12]: 30.2
fold induction at 50 µM [6, 13]: 3.5
fold induction at 50 µM [7, 14]: 26.8

CN(C)C(=O)C(CCN1CCC(O)(c2ccc(Cl)cc2)CC1)(c1ccccc1)c1ccccc1 [Loperamide hydrochloride]
fold induction at 50 µM ([1]; planktonic E. faecium, 384-well, […], read-out: AK-based Prestwick Library Screening Results: E. faecium (increase in extracellular AK activity)): 0.9
fold induction at 50 µM ([2]; planktonic S. aureus, 384-well, […], read-out: AK-based Prestwick Library Screening Results: S. aureus (increase in extracellular AK activity)): 1
fold induction at 50 µM ([3]; planktonic K. pneumoniae, 384-well, […], read-out: AK-based Prestwick Library Screening Results: K. pneumoniae (increase in extracellular AK activity)): 0.9
fold induction at 50 µM ([4]; planktonic A. baumannii, 384-well, […], read-out: AK-based Prestwick Library Screening Results: A. baumannii (increase in extracellular AK activity)): 1.5
fold induction at 50 µM ([5]; planktonic P. aeruginosa, 384-well, […], read-out: AK-based Prestwick Library Screening Results: P. aeruginosa (increase in extracellular AK activity)): 1.2
fold induction at 50 µM ([6]; planktonic E. cloacae, 384-well, […], read-out: AK-based Prestwick Library Screening Results: E. cloacae (increase in extracellular AK activity)): 1.5
fold induction at 50 µM ([7]; planktonic E. coli, 50 μM final drug concentration, 384-well, […], read-out: AK-based Prestwick Library Screening Results: E. coli (increase in extracellular AK activity)): 1.4
